Results reported in ChEMBL document CHEMBL1156010, “Novel CGRP receptor antagonists through a design strategy of target simplification with addition of molecular flexibility” (Bioorg Med Chem Lett, 2009).

biological target: T1, Calcitonin gene-related peptide type 1 receptor (Homo sapiens, UniProt O60894+Q16602); assay: Antagonist activity at human cloned CGRP receptor expressed in HEK293 cells assessed as inhibition of CGRP-induced cAMP production; type: functional, cell-based
T1 sequence (Q16602 whole entry, one chain of several): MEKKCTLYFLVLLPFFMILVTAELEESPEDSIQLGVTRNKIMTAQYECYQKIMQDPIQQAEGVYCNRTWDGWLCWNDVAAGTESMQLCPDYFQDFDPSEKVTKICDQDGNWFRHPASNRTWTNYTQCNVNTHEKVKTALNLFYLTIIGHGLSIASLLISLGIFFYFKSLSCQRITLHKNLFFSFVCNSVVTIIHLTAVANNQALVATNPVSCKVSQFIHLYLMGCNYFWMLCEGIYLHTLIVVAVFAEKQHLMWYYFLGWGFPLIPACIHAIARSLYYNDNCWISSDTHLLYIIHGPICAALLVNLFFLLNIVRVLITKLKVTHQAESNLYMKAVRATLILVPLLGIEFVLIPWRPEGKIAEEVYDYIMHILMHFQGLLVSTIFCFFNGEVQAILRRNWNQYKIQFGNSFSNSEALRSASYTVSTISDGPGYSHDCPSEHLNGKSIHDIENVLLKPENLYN

IC50 [nM]	SMILES
0.62	NCC12CC(=O)Nc3cccc(c31)N(Cc1ccc3cc4c(cc3n1)C[C@]1(C4)C(=O)Nc3ncccc31)C2=O (stereo partly drawn)
0.12	CC1(C)CC[C@@H](c2c(F)cccc2F)N(CC(=O)Nc2ccc3c(c2)C[C@]2(C3)C(=O)Nc3ncccc32)C1=O

biological target: T1, Calcitonin gene-related peptide type 1 receptor; assay: Displacement of [125I]hCGRP from human cloned CGRP receptor expressed in HEK293 cells; type: cell-based

Ki [nM]	SMILES
56	C[C@@H](c1ccccc1)N(CC(=O)Nc1ccc2c(c1)C[C@@]1(C2)C(=O)NC(=O)N1C)C(=O)C(C)(C)C
0.55	CN1C(=O)NC(=O)[C@@]12Cc1ccc(NC(=O)CN(Cc3cc(F)cc(F)c3)C(=O)C(C)(C)C)cc1C2
4.4	CN1C(=O)NC(=O)[C@@]12Cc1ccc(NC(=O)CN(Cc3cc(Cl)cc(Cl)c3)C(=O)C(C)(C)C)cc1C2
0.26	C[C@H](c1cc(F)cc(F)c1)N(CC(=O)Nc1ccc2c(c1)C[C@@]1(C2)C(=O)NC(=O)N1C)C(=O)C(C)(C)C
0.13	NCC12CC(=O)Nc3cccc(c31)N(Cc1ccc3cc4c(cc3n1)C[C@]1(C4)C(=O)Nc3ncccc31)C2=O (stereo partly drawn)
1.2	CN1C(=O)NC(=O)[C@@]12Cc1ccc(NC(=O)CN(Cc3cc(F)cc(Cl)c3)C(=O)C(C)(C)C)cc1C2
0.83	C[C@H](c1ccccc1)N(CC(=O)Nc1ccc2c(c1)C[C@@]1(C2)C(=O)NC(=O)N1C)C(=O)C(C)(C)C
0.035	CC1(C)CC[C@@H](c2c(F)cccc2F)N(CC(=O)Nc2ccc3c(c2)C[C@]2(C3)C(=O)Nc3ncccc32)C1=O
1.8	CN1C(=O)NC(=O)C12Cc1ccc(NC(=O)CN(Cc3cccc(Cl)c3)C(=O)C(C)(C)C)cc1C2 (racemic)
7.9	Cc1cccc(CN(CC(=O)Nc2ccc3c(c2)CC2(C3)C(=O)NC(=O)N2C)C(=O)C(C)(C)C)c1 (racemic)
3.7	CN1C(=O)NC(=O)C12Cc1ccc(NC(=O)CN(Cc3ccc(F)cc3)C(=O)C(C)(C)C)cc1C2 (racemic)
45	COc1cccc(CN(CC(=O)Nc2ccc3c(c2)CC2(C3)C(=O)NC(=O)N2C)C(=O)C(C)(C)C)c1 (racemic)
14	CN1C(=O)NC(=O)C12Cc1ccc(NC(=O)CN(Cc3ccccc3F)C(=O)C(C)(C)C)cc1C2 (racemic)
1.6	CN1C(=O)NC(=O)C12Cc1ccc(NC(=O)CN(Cc3cccc(F)c3)C(=O)C(C)(C)C)cc1C2 (racemic)
23	CN1C(=O)NC(=O)C12Cc1ccc(NC(=O)CN(Cc3cccc(C#N)c3)C(=O)C(C)(C)C)cc1C2 (racemic)
25	CN1C(=O)NC(=O)C12Cc1ccc(NC(=O)CN(Cc3ccc(C(F)(F)F)cc3)C(=O)C(C)(C)C)cc1C2 (racemic)
